Literature values, collected in patent publication US9842198B2, “Screening method and systems utilizing mass spectral fragmentation patterns” (McMaster University, priority 2012, dated 2017).
*1 amine or outer side, *2 acyl side, *3 side chain or, on linkers, in order; H or OH if unused. Where a SMILES comes first, the peptide text is derived from it. Bridges are numbered along the chain shown (N, C = ends). [ ]: non-standard residue; d: D form. The star is where a group is joined. Cinnamoyl(2-(1Z-pentenyl)) = CCC/C=C\c1ccccc1/C=C/C(=O)*; X1 = CN(/C(=C/c1ccc(O)cc1)C(=O)[*:2])[*:1]; aThr = C[C@H](O)[C@H](N)C(=O)O

System: G-protein coupled receptor NK-1
Conditions: natural ligands are tachykinin peptide hormones such as neurokinin A

SMILES: CCC/C=C\c1ccccc1/C=C/C(=O)N[C@@H]1C(=O)N(C)/C(=C/c2ccc(O)cc2)C(=O)N[C@@H](CC(C)C)C(=O)N[C@H](Cc2ccccc2)C(=O)N[C@@H]([C@H](C)O)C(=O)N[C@@H](CC(N)=O)C(=O)N[C@@H](CO)C(=O)O[C@@H]1C [WS-9326A] ({Cinnamoyl(2-(1Z-pentenyl))}-T[X1]L[dF][aThr]NS; ester 1-C)
- antagonist activity at NK-1: potent antagonist
